The source made the active and inactive calls. The rule behind the calls is not given here.
Legend:
H9c2 [1] = assay: Anti-inflammatory activity in LPS/hypoxia induced rat H9c2 cells assessed as increase in VEGF expression at 10 uM in presence of 2-(4-(5-oxo-5-((5-sulfamoyl-1,3,4-thiadiazol-2-yl)amino)pentyl)-1H-1,2,3-triazol-1-yl)acetic acid by Western blot analysis; assay type: functional, cell-based
Rattus norvegicus [2] = assay: Antiinflammatory activity against LPS/talc powder induced pericarditic Wistar rat assessed as reduction in U wave flattening at 20 mg/kg, ip pretreated for 2 hrs followed by LPS/tal powder stimulation measured after 48 hrs in presence of 2-(4-(5-oxo-5-((5-sulfamoyl-1,3,4-thiadiazol-2-yl)amino)pentyl)-1H-1,2,3-triazol-1-yl)acetic acid by ECG analysis; assay type: functional, organism-based; conditions: time 50.0 hrs
[3] = Toxicity in Wistar rat assessed as change in ALT level in presence of 2-(4-(5-oxo-5-((5-sulfamoyl-1,3,4-thiadiazol-2-yl)amino)pentyl)-1H-1,2,3-triazol-1-yl)acetic acid; conditions: in vivo
H9c2 [4] = assay: Anti-inflammatory activity in LPS/hypoxia induced rat H9c2 cells assessed as reduction of IL-1 beta protein expression at 10 uM by Western blot analysis; assay type: functional, cell-based
[5] = Toxicity in Wistar rat assessed as change in BUN level in presence of 2-(4-(5-oxo-5-((5-sulfamoyl-1,3,4-thiadiazol-2-yl)amino)pentyl)-1H-1,2,3-triazol-1-yl)acetic acid; conditions: in vivo
[6] = Toxicity in Wistar rat assessed as change in CRE level in presence of 2-(4-(5-oxo-5-((5-sulfamoyl-1,3,4-thiadiazol-2-yl)amino)pentyl)-1H-1,2,3-triazol-1-yl)acetic acid; conditions: in vivo
H9c2 [7] = assay: Reversal of ATP level in LPS/hypoxia induced rat H9c2 cell in presence of 2-(4-(5-oxo-5-((5-sulfamoyl-1,3,4-thiadiazol-2-yl)amino)pentyl)-1H-1,2,3-triazol-1-yl)acetic acid and Na2WO4 by multimode plate reader analysis; assay type: functional, cell-based
H9c2 [8] = assay: Antiinflammatory activity in LPS/hypoxia induced CA9 knockdown rat H9c2 cells assessed as decrease in IL-6 protein level at 10 uM by Western blot analysis; assay type: functional, cell-based
Rattus norvegicus [9] = assay: Antiinflammatory activity in LPS/talc powder induced pericarditic Wistar rat assessed as increase in cTNI level in serum at 20 mg/kg, ip pretreated for 2 hrs followed by LPS/tal powder stimulation measured after 48 hrs in presence of 2-(4-(5-oxo-5-((5-sulfamoyl-1,3,4-thiadiazol-2-yl)amino)pentyl)-1H-1,2,3-triazol-1-yl)acetic acid (reference value: 0.167+/-0.025 ng/ml); assay type: functional; conditions: time 50 hrs
H9c2 [10] = assay: Anti-inflammatory activity in rat H9c2 cells assessed as downregulation of cytochrome C expression at 10 uM by Western blot analysis; assay type: functional, cell-based
H9c2 [11] = assay: Reversal of LPS/hypoxia induced mitochondrial membrane potential loss in rat H9c2 cells assessed as increase in JC-1 polymer morphology in presence of 2-(4-(5-oxo-5-((5-sulfamoyl-1,3,4-thiadiazol-2-yl)amino)pentyl)-1H-1,2,3-triazol-1-yl)acetic acid by JC-1 dye based flow cytometry analysis; assay type: functional, cell-based; conditions: time 20.0 min
H9c2 [12] = assay: Inhibition of intracellular ROS level in LPS/hypoxia induced rat H9c2 cells in presence of 2-(4-(5-oxo-5-((5-sulfamoyl-1,3,4-thiadiazol-2-yl)amino)pentyl)-1H-1,2,3-triazol-1-yl)acetic acid and Na2WO4 by DCFH-DA probe based fluorescence confocal microscopy analysis; assay type: functional, cell-based
H9c2 [13] = assay: Protection against LPS/hypoxia induced apoptosis in rat H9c2 cells assessed as reduction in necrotic cells at 10 umol/L incubated for 4 hrs under hypoxia condition by AnnexinV-FITC/propidium iodide staining based flow cytometry analysis (reference value: 31.02%); assay type: functional; set-up: scale not given: the % may be the effect or the level left; conditions: dose 10 µmol/L, at 10 µM
[14] = Stability of the compound assessed as NTR (unknown origin) mediated hydrolysis by measuring half life by UV spectrophotometry; assay type: ADME; conditions: human
H9c2 [15] = assay: Antiinflammatory activity in LPS/hypoxia induced CA9 knockdown rat H9c2 cells assessed as decrease in IL-1 beta protein level at 10 uM by Western blot analysis; assay type: functional, cell-based
H9c2 [16] = assay: Protection against LPS/hypoxia induced cell injury in rat H9c2 cells assessed as recovery of cell viability in presence of 2-(4-(5-oxo-5-((5-sulfamoyl-1,3,4-thiadiazol-2-yl)amino)pentyl)-1H-1,2,3-triazol-1-yl)acetic acid by CCK-8 assay (reference value: 69.0%); assay type: functional
Rattus norvegicus [17] = assay: Antiinflammatory activity in LPS/talc powder induced pericarditic Wistar rat model assessed as increase in CK-MB level in serum at 20 mg/kg, ip pretreated for 2 hrs followed by LPS/tal powder stimulation measured after 48 hrs in presence of 2-(4-(5-oxo-5-((5-sulfamoyl-1,3,4-thiadiazol-2-yl)amino)pentyl)-1H-1,2,3-triazol-1-yl)acetic acid (reference value: 4140+/-256.23 U/L); assay type: functional; conditions: time 50 hrs
H9c2 [18] = assay: Protection against LPS/hypoxia induced cell injury in CA9 knockdown rat H9c2 cells assessed as recovery of cell viability at 10 uM by CCK-8 assay; assay type: functional, cell-based
Rattus norvegicus [19] = assay: Antiinflammatory activity against LPS/talc powder induced pericarditic Wistar rat assessed as reduction in heart swelling at 20 mg/kg, ip pretreated for 2 hrs followed by LPS/tal powder stimulation measured after 48 hrs in presence of 2-(4-(5-oxo-5-((5-sulfamoyl-1,3,4-thiadiazol-2-yl)amino)pentyl)-1H-1,2,3-triazol-1-yl)acetic acid; assay type: functional, organism-based; conditions: time 50.0 hrs
H9c2 [20] = assay: Protection against LPS/ hypoxia induced cell injury in rat H9c2 cells assessed as recovery of cell viability at 1 to 10 uM by CCK-8 assay; assay type: functional, cell-based; conditions: dose 1-10 µM
H9c2 [21] = assay: Anti-inflammatory activity in LPS/hypoxia induced rat H9c2 cells assessed as reduction of IL-1beta protein expression at 10 uM in presence of 2-(4-(5-oxo-5-((5-sulfamoyl-1,3,4-thiadiazol-2-yl)amino)pentyl)-1H-1,2,3-triazol-1-yl)acetic acid by Western blot analysis; assay type: functional, cell-based
H9c2 [22] = assay: Anti-inflammatory activity in LPS/hypoxia induced rat H9c2 cells assessed as reduction of IL-6 protein expression at 10 uM by Western blot analysis; assay type: functional, cell-based
H9c2 [23] = assay: Anti-inflammatory activity in LPS/hypoxia induced rat H9c2 cells assessed as reduction of IL-6 protein expression at 10 uM in presence of 2-(4-(5-oxo-5-((5-sulfamoyl-1,3,4-thiadiazol-2-yl)amino)pentyl)-1H-1,2,3-triazol-1-yl)acetic acid by Western blot analysis; assay type: functional, cell-based
H9c2 [24] = assay: Protection against LPS/hypoxia induced apoptosis in rat H9c2 cells assessed as reduction in red fluorescence by confocal microscopy analysis; assay type: functional, cell-based
H9c2 [25] = assay: Protection against LPS/hypoxia induced cell injury in rat H9c2 cells assessed as recovery of cell viability in presence of 2-(4-(5-oxo-5-((5-sulfamoyl-1,3,4-thiadiazol-2-yl)amino)pentyl)-1H-1,2,3-triazol-1-yl)acetic acid and Na2WO4 by CCK-8 assay; assay type: functional, cell-based
H9c2 [26] = assay: Anti-inflammatory activity in LPS/hypoxia induced rat H9c2 cells assessed as reduction of TNF-alpha protein expression at 10 uM in presence of 2-(4-(5-oxo-5-((5-sulfamoyl-1,3,4-thiadiazol-2-yl)amino)pentyl)-1H-1,2,3-triazol-1-yl)acetic acid by Western blot analysis; assay type: functional, cell-based
H9c2 [27] = assay: Protection against LPS/hypoxia induced cell injury in rat H9c2 cells assessed as recovery of cell viability at 10 uM by CCK-8 assay; assay type: functional, cell-based

In the case of `COc1ccc2c(c1)c(CC(=O)O)c(C)n2C(=O)c1ccc(Cl)cc1` [INDOMETHACIN], the Activity (H9c2 [1]) was “Active”, the Activity (Rattus norvegicus [2]) was “Active” and the Activity [3] was “Toxic”. The Activity (H9c2 [4]) was “Active”, the Activity [5] was “Toxic” and the Activity [6] was “Toxic”. The Activity (H9c2 [7]) was “Active”, the Activity (H9c2 [8]) was “Active” and the Activity (Rattus norvegicus [9]) was 0.121 ng/mL. For the same compound, the Activity (H9c2 [10]) was “Active”, the Activity (H9c2 [11]) was “Active” and the inhibition (H9c2 [12]) was “Active”. The Activity (H9c2 [13]) was 23.96%, the t1/2 [14] was 21.6 min and the Activity (H9c2 [15]) was “Active”. For the same compound, the Activity (H9c2 [16]) was 91.8%, the Activity (Rattus norvegicus [17]) was 2620 U/L and the Activity (H9c2 [18]) was “Active”. The Activity (Rattus norvegicus [19]) was “Active”, the Activity (H9c2 [20]) was “Active” and the Activity (H9c2 [21]) was “Active”. The Activity (H9c2 [22]) was “Active”, the Activity (H9c2 [23]) was “Active” and the Activity (H9c2 [24]) was “Active”. For the same compound, the Activity (H9c2 [25]) was “Active”, the Activity (H9c2 [26]) was “Active” and the Activity (H9c2 [27]) was “Active”.
